Counter-ions that a name gives are not always drawn.

Test [1] relates to Ff-WJ-18 cells (human iPS cells). The test can be described thus: Induction of differentiation of iPS cells into pancreatic progenitor cells at stage 4, flow cytometry. Type of test: cell-based. The note with it: stage 4, 4 days, 0.00001 μM to 1 μM, medium with or without ROCK inhibitor Y-27632, vs negative control (FIG. 2, FIG. 3). As for the experimental part:
The human iPS cells used were Ff-WJ-18 cells (Kyoto University). The Ff-WJ-18 cells maintenance-cultured according to Reference Example 1 were induced to differentiate into pancreatic progenitor cells by the following procedures. Culture was performed at 37° C. under 5% CO2 in all cases, and the culture container used was coated with iMatrix-511(TM) (Nippi).
Ff-WJ-18 cells (70,000 cells/9.6 cm^2) were seeded to RPMI1640 medium containing 1% penicillin/streptomycin, 1% B27, activin A (100 ng/mL), CHIR99021 (3 μM), and Y-27632 (10 μM), and cultured for 1 day. The cells were further cultured for 2 days in RPMI1640 medium containing 1% penicillin/streptomycin, 1% B27, and activin A (100 ng/mL) with the medium replaced with a fresh one every day.
The resulting cells were cultured for 4 days using instead iMEM medium containing 1% penicillin/streptomycin, 1% B27, and KGF (50 ng/mL). […]
The cells after the culture at stage 4 were collected, and the proportion of NKX6.1-positive/PDX-1-positive cells was determined by flow cytometry. Likewise, the proportion of the cells was determined as to iPS cells and cells before the culture at stage 4 (s3d2: stage 3, day 2). […]
Also, an effect was compared between a factor having CDK1/2-inhibiting activity and a factor having CDK8/19-inhibiting activity by a similar method. […] The proportion of NKX6.1-positive/PDX-1-positive cells was determined.
Background: A flow cytometer gives signals particle by particle.

Test [2] has as its target T1, CDC2L6/CycC (CDK19) (Homo sapiens, UniProt Q9BWU1).
T1 construct: purchased Carna Biosciences
The test is described as follows: CDK19-inhibiting activity (Kinase Tracer-236 / Eu-anti-GST fluorescence assay). Type of test: binding. The following applies: read-out: rate of inhibition of CDK19; for inhibition at 1 µM: 1 μM test compound; for inhibition at 10 µM: 10 μM test compound. As for the experimental part:
(§1) Test compounds were evaluated for their CDK8-inhibiting activity and CDK19-inhibiting activity by the following method.
(§2) Each test compound dissolved in dimethyl sulfoxide was diluted with an assay buffer (25 mM HEPES, 10 mM MgCl2, 2 mM DL-dithiothreitol, 0.01% Tween-20) to obtain a primary dilution having a DMSO concentration of 3%. The primary dilution was dispensed at 2 μL/well to a 384-well plate. Then, a mixed solution of Eu^3+ Cryptate conjugated mouse monoclonal antibody anti-glutathione S-transferase (CisBio) diluted 267-fold with an assay buffer and 60 nM Kinase Tracer-236 (Life Technologies) was added at 2 μL/well. After the addition, a kinase solution (84 ng/mL CDK8/CycC (Carna Biosciences) diluted with an assay buffer was used for CDK8-inhibiting activity measurement, and 87 ng/mL CDC2L6/CycC (Carna Biosciences) diluted with an assay buffer was used for CDK19-inhibiting activity measurement) was further added at 2 μL/well. After the addition, the plate was left standing at room temperature for 1 hour, followed by the measurement of fluorescence intensity (excitation wavelength: 320 nm, fluorescence wavelength: 615 nm, 665 nm, delay time: 50 μsec) using a plate reader EnVision (Perkin Elmer).
(§3) When the fluorescence intensity of a reaction solution under compound non-addition conditions was used as a control and the fluorescence intensity of a reaction solution under 10 μM control compound addition conditions was used as a blank, the rate of inhibition of CDK8 or CDK19 by the test compound can be calculated according to the following expression:
(§4) Rate of inhibition (%)=(1−(Fluorescence intensity of the test compound−Blank)/(Control−Blank))×100
(§5) The control compound used was commercially available 4-(4-(2,3-dihydro-1,4-benzodioxin-6-yl)-1H-pyrazol-3-yl)benzene-1,3-diol.

Test [3] addresses T2, CDK8/CycC (Homo sapiens, UniProt P49336).
T2 construct: purchased Carna Biosciences
The test can be described thus: CDK8-inhibiting activity (Kinase Tracer-236 / Eu-anti-GST fluorescence assay). The note with it: read-out: rate of inhibition of CDK8; for inhibition at 1 µM: 1 μM test compound; for inhibition at 10 µM: 10 μM test compound. Type of test: binding. The procedure:
as §1, §2, §3, §4, §5

T2 sequence (P49336 whole entry): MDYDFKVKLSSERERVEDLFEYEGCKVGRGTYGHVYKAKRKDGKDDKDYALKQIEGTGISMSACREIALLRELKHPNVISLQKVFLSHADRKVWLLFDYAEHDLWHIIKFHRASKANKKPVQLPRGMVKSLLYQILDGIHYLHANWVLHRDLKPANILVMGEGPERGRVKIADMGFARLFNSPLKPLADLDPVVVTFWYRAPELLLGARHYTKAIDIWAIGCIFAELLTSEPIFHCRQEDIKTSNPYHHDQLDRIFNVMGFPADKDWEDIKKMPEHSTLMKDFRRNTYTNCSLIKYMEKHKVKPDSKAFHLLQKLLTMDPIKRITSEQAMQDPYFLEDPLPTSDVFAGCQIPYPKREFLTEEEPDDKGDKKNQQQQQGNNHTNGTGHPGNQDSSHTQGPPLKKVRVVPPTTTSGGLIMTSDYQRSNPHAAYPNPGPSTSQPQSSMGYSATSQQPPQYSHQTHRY
T2 sequence (P24863 whole entry partner): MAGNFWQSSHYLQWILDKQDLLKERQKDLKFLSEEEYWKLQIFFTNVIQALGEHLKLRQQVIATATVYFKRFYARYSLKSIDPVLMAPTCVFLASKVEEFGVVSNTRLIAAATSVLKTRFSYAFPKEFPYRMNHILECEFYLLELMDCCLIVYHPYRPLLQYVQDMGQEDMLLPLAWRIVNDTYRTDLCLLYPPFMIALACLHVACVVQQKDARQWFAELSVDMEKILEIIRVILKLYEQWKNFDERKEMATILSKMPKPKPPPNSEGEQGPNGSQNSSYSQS
T1 sequence (Q9BWU1 whole entry): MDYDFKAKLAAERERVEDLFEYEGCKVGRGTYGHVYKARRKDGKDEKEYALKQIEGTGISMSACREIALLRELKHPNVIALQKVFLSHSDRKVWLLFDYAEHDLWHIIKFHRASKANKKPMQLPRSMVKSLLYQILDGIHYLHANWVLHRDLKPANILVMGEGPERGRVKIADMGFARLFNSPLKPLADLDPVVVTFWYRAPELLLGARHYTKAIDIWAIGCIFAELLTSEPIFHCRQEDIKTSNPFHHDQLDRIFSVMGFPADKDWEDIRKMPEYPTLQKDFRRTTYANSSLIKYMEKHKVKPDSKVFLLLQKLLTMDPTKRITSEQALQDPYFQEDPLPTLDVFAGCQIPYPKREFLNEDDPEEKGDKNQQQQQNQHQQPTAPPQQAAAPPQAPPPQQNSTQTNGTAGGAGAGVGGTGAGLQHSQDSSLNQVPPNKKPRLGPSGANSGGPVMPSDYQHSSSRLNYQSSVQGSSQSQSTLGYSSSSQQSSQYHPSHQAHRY
T1 sequence (P24863 whole entry partner): as the sequence (P24863 whole entry partner) above

On to `Nc1nc(Nc2ccc(S(N)(=O)=O)cc2)nn1C(=S)Nc1c(F)cccc1F` [CAS443798-55-8], for which the “proportion of NKX6.1-positive/PDX-1-positive cells” value in test [1] is recorded as “efficient induction of differentiation into pancreatic progenitor cells was not observed”.
On to `Cn1ncc2c1-c1c(Oc3ccc(F)cc3F)sc(C(N)=O)c1CC2` [Compound 1, 8-(2,4-Difluorophenoxy)-1-methyl-4,5-dihydro-1H-thieno[3,4-g]indazole-6-carboxamide], for which the inhibition (usually the relative decrease from the control value, in per cent) at 1 µM was 99% in test [2] and 97% in test [3]. The inhibition at 10 µM in test [2] was found to be 96%; in test [3], 94%.
The matching figures for `O=C1Nc2ccccc2N(S(=O)(=O)c2ccc(F)cc2)C1CCSc1ccc2nccn2n1` (centres unmarked) [Compound 2, 4-((4-Fluorophenyl)sulfonyl)-3-(2-(imidazo[1,2-b]pyridazin-6-ylsulfanyl)ethyl)-3,4-dihydroquinoxalin-2(1H)-one]: 102%, 100%, 103% and 100%.
The matching figures for `NC(=O)c1ccc(-c2c[nH]c3ncccc23)cc1NCc1ccccc1` [Compound 3, 2-(Benzylamino)-4-(1H-pyrrolo[2,3-b]pyridin-3-yl)benzamide]: 101%, 101%, 104% and 105%.
On to `c1ccc(COc2cccc(-c3c[nH]c4ncccc34)c2)cc1` [Compound 4, 3-(3-(Benzyloxy)phenyl)-1H-pyrrolo[2,3-b]pyridine], for which, in test [2], the inhibition at 1 µM worked out at 94% and the inhibition at 10 µM turned out to be 101%. Further, in test [3], the inhibition at 1 µM worked out at 91% and the inhibition at 10 µM stood at 102%.
For `Oc1ccc(-c2n[nH]cc2-c2ccc3c(c2)OCCO3)c(O)c1` [Compound 5, 4-(4-(2,3-Dihydro-1,4-benzodioxin-6-yl)-1H-pyrazol-3-yl)benzene-1,3-diol, reference compound] the same measures were 86%, 100%, 87% and 100%.
For `CCCCNC(=O)c1ccc2cncc(-c3ccc(OC)cc3)c2n1` [Compound 6, N-Butyl-8-(4-methoxyphenyl)-1,6-naphthyridine-2-carboxamide trifluoroacetate] the same measures were 100%, 100%, 103% and 102%.
Take `CCCN(CCC)C(=O)c1ccc2cncc(-c3ccc(C)cc3)c2n1` [Compound 7, 8-(4-Methylphenyl)-N,N-dipropyl-1,6-naphthyridine-2-carboxamide trifluoroacetate]: the results for the inhibition at 1 µM in test [2] and in test [3] were 83% and 92%, respectively. Besides, the inhibition at 10 µM in test [2] was found to be 100%; in test [3], 104%.

Source of the values: patent publication US20190390169A1, “PANCREATIC PROGENITOR CELL PRODUCTION METHOD” (Kyoto University, priority 2017, published 2019).
